Reference: ChEMBL document CHEMBL1146847, “Design and synthesis of potent, non-peptidic inhibitors of HPTPbeta” (Bioorg Med Chem Lett, 2006)
Blank lines part the entries; values can stand above or below the compound they belong to.

Key:
[1] = molecular target: Receptor-type tyrosine-protein phosphatase beta (Homo sapiens, UniProt P23467)
[2] = molecular target: T1, Tyrosine-protein phosphatase non-receptor type 1 (Homo sapiens, UniProt P18031); assay: Inhibition of PTP1B
T1 sequence (P18031 whole entry): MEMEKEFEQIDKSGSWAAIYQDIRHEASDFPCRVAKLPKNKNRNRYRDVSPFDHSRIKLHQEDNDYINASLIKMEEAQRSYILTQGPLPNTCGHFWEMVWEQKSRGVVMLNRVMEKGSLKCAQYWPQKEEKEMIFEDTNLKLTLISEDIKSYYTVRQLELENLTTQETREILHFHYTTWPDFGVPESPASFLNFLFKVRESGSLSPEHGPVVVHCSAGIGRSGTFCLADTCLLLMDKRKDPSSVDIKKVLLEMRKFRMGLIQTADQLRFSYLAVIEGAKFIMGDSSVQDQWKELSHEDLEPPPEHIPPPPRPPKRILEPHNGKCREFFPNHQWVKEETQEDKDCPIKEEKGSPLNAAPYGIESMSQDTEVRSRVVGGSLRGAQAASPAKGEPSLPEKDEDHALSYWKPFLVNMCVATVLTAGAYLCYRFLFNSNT

[3] = molecular target: T2, Low molecular weight phosphotyrosine protein phosphatase (Homo sapiens, UniProt P24666); assay: Inhibition of HCPTPA
T2 sequence (P24666 whole entry): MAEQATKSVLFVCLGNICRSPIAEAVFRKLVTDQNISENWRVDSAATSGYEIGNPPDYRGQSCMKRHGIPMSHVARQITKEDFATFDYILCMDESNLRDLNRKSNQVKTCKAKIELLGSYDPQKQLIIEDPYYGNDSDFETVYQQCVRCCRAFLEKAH

[4] = molecular target: Receptor-type tyrosine-protein phosphatase epsilon (Homo sapiens, UniProt P23469); assay: Inhibition of HPTP epsilon
Receptor-type tyrosine-protein phosphatase epsilon, sequence (P23469 whole entry): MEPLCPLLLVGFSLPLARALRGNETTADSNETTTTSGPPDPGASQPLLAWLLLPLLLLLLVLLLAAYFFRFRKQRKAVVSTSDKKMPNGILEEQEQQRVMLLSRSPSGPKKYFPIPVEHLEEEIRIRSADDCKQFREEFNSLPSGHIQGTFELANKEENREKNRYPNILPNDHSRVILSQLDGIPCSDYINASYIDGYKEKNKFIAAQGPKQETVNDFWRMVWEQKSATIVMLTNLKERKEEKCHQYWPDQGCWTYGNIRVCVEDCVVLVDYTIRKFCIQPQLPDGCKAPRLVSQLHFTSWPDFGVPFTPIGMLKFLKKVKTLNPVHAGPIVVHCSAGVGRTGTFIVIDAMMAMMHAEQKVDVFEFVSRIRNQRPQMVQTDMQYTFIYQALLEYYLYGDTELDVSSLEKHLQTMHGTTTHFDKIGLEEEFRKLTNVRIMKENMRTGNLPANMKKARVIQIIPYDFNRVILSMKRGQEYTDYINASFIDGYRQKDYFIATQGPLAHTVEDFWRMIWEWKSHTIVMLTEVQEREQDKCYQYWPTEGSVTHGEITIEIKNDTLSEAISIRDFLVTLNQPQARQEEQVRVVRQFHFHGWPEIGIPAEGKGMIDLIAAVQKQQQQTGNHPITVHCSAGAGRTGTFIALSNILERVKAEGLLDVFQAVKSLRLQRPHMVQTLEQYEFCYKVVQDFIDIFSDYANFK

[5] = molecular target: T3, Receptor-type tyrosine-protein phosphatase F (Homo sapiens, UniProt P10586); assay: Inhibition of LAR1
T3 sequence (P10586 whole entry): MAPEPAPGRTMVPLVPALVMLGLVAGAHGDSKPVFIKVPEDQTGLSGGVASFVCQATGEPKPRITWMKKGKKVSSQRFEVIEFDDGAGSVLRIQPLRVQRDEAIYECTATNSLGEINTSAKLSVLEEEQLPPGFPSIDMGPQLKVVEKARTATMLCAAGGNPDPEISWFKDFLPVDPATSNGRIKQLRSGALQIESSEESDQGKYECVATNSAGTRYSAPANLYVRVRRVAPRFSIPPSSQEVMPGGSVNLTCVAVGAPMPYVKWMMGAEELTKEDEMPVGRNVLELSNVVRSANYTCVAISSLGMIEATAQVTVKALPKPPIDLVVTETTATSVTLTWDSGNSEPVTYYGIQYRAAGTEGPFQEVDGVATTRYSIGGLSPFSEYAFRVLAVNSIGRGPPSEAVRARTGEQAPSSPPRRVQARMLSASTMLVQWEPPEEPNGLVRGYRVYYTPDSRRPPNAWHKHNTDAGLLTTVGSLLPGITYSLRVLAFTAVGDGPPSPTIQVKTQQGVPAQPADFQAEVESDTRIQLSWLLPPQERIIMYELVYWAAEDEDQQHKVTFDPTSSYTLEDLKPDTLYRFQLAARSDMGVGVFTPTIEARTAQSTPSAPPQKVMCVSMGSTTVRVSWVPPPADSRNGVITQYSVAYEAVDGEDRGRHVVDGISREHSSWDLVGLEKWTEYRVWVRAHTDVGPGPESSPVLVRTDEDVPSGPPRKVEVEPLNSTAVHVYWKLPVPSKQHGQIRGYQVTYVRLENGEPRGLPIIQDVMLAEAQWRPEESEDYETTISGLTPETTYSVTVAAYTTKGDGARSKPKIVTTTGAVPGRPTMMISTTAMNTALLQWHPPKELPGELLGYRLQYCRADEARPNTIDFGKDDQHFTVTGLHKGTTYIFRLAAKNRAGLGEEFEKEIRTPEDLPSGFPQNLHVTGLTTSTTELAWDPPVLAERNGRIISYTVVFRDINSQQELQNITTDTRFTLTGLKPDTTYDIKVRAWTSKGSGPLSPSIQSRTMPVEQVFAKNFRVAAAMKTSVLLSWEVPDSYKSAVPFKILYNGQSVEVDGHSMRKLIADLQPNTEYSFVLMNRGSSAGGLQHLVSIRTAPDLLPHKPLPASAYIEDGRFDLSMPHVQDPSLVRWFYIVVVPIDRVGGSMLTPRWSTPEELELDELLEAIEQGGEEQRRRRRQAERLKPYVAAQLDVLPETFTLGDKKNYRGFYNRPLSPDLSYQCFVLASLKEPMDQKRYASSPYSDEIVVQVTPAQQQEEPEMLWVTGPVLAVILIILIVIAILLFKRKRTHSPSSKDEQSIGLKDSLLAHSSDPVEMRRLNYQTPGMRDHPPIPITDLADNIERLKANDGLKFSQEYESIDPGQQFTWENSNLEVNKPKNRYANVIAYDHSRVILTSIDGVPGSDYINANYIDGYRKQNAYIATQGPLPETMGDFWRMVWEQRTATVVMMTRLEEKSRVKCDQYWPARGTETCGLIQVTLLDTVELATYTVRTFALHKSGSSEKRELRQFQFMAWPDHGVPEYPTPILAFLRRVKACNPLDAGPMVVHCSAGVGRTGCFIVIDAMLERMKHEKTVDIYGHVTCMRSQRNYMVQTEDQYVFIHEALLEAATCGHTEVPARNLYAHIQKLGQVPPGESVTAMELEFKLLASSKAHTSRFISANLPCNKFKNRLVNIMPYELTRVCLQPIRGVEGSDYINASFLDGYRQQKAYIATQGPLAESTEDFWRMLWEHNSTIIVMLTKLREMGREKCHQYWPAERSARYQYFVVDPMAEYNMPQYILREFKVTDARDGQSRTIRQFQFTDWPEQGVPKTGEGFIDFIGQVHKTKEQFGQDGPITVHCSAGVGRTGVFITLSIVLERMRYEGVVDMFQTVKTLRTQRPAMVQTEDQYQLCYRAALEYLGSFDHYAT

[6] = molecular target: T3, Receptor-type tyrosine-protein phosphatase F; assay: Inhibition of LAR2
[7] = molecular target: Receptor-type tyrosine-protein phosphatase gamma (Homo sapiens, UniProt P23470); assay: Inhibition of PTP gamma
[8] = molecular target: T4, Tyrosine-protein phosphatase non-receptor type 2 (Homo sapiens, UniProt P17706); assay: Inhibition of TCPTP38
T4 sequence (P17706 whole entry): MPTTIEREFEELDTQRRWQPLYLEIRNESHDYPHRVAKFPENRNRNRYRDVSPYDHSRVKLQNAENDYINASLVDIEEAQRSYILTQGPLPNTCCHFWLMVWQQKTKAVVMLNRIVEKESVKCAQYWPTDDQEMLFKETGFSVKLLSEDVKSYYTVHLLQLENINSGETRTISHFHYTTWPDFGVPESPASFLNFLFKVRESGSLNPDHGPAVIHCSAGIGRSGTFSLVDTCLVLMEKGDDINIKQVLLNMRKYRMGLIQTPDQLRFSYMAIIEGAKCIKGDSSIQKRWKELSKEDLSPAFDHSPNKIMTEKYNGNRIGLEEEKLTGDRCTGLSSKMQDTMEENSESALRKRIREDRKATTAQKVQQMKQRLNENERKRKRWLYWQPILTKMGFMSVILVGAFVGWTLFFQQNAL

[9] = molecular target: Receptor-type tyrosine-protein phosphatase mu (Homo sapiens, UniProt P28827); assay: Inhibition of HPTP mu
[10] = molecular target: T5, Receptor-type tyrosine-protein phosphatase C (Homo sapiens, UniProt P08575); assay: Inhibition of CD45
T5 sequence (P08575 whole entry): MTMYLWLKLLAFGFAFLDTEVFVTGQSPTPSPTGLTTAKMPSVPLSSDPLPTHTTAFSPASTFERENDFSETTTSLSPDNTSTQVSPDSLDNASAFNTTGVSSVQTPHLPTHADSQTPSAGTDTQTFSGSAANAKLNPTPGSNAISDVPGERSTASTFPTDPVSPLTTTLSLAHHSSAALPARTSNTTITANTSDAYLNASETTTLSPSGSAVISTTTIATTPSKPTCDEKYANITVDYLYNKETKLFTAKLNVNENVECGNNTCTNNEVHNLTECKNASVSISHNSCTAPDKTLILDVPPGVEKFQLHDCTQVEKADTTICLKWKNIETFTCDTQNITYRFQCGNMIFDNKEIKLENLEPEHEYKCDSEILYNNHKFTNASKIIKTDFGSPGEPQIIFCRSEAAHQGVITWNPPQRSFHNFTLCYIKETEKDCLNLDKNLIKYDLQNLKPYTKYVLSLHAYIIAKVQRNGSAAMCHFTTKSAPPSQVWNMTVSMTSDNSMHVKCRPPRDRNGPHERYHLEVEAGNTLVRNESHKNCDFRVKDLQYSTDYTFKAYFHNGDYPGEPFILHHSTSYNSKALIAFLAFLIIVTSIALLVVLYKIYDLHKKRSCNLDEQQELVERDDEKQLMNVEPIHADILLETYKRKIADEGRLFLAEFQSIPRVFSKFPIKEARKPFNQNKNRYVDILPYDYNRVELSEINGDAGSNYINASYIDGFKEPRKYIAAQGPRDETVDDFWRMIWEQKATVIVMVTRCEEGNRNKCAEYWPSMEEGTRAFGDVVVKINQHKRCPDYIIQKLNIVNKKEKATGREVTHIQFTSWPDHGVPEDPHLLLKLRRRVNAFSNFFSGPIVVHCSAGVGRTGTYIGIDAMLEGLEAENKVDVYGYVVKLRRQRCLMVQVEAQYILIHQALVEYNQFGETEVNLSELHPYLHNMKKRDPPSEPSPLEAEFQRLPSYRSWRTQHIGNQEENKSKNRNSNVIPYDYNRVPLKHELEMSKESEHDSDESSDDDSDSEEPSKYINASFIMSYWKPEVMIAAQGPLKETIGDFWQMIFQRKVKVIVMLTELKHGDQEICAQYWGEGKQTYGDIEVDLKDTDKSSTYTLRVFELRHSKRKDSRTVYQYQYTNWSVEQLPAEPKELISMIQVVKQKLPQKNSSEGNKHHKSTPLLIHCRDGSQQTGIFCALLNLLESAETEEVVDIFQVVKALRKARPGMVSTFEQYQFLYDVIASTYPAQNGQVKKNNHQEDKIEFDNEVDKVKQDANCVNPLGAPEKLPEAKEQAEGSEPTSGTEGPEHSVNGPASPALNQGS

[11] = molecular target: T4, Tyrosine-protein phosphatase non-receptor type 2; assay: Inhibition of TCPTP
[12] = molecular target: Receptor-type tyrosine-protein phosphatase alpha (Homo sapiens, UniProt P18433); assay: Inhibition HPTPA

Receptor-type tyrosine-protein phosphatase beta, sequence (P23467 whole entry): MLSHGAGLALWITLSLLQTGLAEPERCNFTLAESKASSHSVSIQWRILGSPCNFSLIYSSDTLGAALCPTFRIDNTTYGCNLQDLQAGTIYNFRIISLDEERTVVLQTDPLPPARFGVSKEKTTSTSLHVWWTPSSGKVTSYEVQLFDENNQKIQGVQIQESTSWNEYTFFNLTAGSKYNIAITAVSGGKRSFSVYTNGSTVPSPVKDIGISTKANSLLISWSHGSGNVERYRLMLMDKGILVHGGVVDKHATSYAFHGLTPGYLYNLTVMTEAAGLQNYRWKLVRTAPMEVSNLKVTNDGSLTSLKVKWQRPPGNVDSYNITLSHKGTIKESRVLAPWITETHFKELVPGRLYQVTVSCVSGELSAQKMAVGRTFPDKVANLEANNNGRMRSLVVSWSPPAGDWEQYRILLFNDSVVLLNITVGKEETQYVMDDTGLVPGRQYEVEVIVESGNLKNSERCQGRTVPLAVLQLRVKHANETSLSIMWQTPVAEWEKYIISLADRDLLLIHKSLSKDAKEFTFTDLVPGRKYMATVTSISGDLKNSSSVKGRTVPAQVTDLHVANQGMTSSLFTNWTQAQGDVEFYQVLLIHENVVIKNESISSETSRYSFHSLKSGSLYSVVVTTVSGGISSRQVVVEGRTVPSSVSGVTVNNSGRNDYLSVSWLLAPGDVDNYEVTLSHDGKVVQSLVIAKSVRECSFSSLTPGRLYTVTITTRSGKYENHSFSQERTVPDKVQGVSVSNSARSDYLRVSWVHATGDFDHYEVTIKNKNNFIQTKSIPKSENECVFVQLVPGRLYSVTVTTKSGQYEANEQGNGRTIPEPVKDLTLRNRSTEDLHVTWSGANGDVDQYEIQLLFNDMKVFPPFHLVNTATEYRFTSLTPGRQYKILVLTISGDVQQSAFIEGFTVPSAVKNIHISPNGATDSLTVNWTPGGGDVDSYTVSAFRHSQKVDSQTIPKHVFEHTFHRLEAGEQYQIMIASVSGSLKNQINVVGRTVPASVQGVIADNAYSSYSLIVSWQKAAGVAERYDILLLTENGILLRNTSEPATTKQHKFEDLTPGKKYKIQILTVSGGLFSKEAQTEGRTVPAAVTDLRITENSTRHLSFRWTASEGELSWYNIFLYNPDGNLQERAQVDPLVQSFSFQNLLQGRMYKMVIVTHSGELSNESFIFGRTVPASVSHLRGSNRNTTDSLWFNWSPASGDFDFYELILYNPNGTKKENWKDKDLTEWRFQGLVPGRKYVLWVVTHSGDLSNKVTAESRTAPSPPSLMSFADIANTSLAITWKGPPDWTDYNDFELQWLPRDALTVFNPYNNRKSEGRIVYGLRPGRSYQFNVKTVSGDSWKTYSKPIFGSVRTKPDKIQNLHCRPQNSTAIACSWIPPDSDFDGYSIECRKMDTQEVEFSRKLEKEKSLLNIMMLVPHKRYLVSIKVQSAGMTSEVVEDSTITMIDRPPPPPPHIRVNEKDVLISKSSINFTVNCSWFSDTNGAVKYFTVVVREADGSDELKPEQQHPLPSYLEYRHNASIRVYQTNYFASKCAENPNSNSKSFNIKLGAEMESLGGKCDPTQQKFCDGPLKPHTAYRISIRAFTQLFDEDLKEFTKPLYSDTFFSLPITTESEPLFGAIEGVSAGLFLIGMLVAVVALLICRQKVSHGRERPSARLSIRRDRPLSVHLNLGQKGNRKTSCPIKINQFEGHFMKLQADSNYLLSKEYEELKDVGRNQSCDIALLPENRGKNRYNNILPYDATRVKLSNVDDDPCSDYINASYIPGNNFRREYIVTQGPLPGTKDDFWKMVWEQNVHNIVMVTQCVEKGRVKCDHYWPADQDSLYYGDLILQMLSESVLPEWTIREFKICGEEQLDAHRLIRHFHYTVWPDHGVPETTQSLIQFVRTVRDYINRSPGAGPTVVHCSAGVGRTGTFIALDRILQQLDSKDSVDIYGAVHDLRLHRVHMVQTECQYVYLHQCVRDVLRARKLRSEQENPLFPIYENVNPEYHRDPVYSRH

Structure (SMILES): COC(=O)C(Cc1ccc(NS(=O)(=O)O)cc1)C(=O)OC
IC50 [1]: 1000 nM

Structure (SMILES): COc1ccc(CC(Cc2ccc(NS(=O)(=O)O)cc2)(c2nc(C)no2)c2nc(C)no2)cc1
IC50 [1]: 340 nM

Structure (SMILES): COC(=O)C(Cc1ccc(NS(=O)(=O)O)cc1)(Cc1cccc(S(N)(=O)=O)c1)C(=O)OC
IC50 [1]: 300 nM

Structure (SMILES): CCOC(=O)C(Cc1ccc(NS(=O)(=O)O)cc1)(NC(=O)OC(C)(C)C)C(=O)OC (configuration not stated)
IC50 [1]: 450 nM

Structure (SMILES): CCOC(=O)C(Cc1ccc(NS(=O)(=O)O)cc1)(NC(=O)OCc1ccccc1)C(=O)OC (configuration not stated)
IC50 [2]: 12800 nM | IC50 [3]: 82200 nM | IC50 [4]: > 500000 nM | IC50 [5]: 227000 nM | IC50 [6]: 472000 nM | IC50 [7]: 196000 nM | IC50 [8]: 78000 nM | IC50 [9]: > 500000 nM | IC50 [10]: 280000 nM | IC50 [1]: 400 nM

Structure (SMILES): COC(=O)C(Cc1ccncc1)(Cc1ccc(NS(=O)(=O)O)cc1)C(=O)OC
IC50 [1]: 570 nM

Structure (SMILES): COC(=O)C(Cc1ccc(NS(=O)(=O)O)cc1)(Cc1ccc(OC)cc1)C(=O)OC
IC50 [1]: 390 nM

Structure (SMILES): COC(=O)C(Cc1ccc(NS(=O)(=O)O)cc1)(Cc1cccc(OC)c1)C(=O)OC
IC50 [1]: 330 nM

Structure (SMILES): COC(=O)CCCC(Cc1ccc(NS(=O)(=O)O)cc1)(C(=O)OC)C(=O)OC
IC50 [1]: 380 nM

Structure (SMILES): COC(=O)C(CCCS(C)(=O)=O)(Cc1ccc(NS(=O)(=O)O)cc1)C(=O)OC
IC50 [1]: 420 nM

Structure (SMILES): COC(=O)C(Cc1ccc(NS(=O)(=O)O)cc1)(Cc1ccc(S(N)(=O)=O)cc1)C(=O)OC
IC50 [1]: 430 nM

Structure (SMILES): COC(=O)C(Cc1ccccc1)(Cc1ccc(NS(=O)(=O)O)cc1)C(=O)OC
IC50 [2]: 6100 nM | IC50 [11]: 19400 nM | IC50 [12]: 900 nM

Structure (SMILES): COC(=O)c1cccc(CC(Cc2ccc(NS(=O)(=O)O)cc2)(C(=O)OC)C(=O)OC)c1
IC50 [1]: 290 nM

Structure (SMILES): COC(=O)c1ccc(CC(Cc2ccc(NS(=O)(=O)O)cc2)(C(=O)OC)C(=O)OC)cc1
IC50 [1]: 410 nM

More lines, now with the values ahead:

IC50 [1]: 140 nM
Structure (SMILES): COC(=O)C(Cc1ccc(NS(=O)(=O)O)cc1)(Cc1ccc(C(=O)O)cc1)C(=O)OC

IC50 [1]: 150 nM
Structure (SMILES): COC(=O)C(CCCS(=O)(=O)c1ccccc1)(Cc1ccc(NS(=O)(=O)O)cc1)C(=O)OC

IC50 [1]: 230 nM
Structure (SMILES): COc1cccc(CC(Cc2ccc(NS(=O)(=O)O)cc2)(c2nc(C)no2)c2nc(C)no2)c1

IC50 [1]: 90 nM
Structure (SMILES): CCOC(=O)C(CCNC(=O)OC(C)(C)C)(Cc1ccc(NS(=O)(=O)O)cc1)C(=O)OC (configuration not stated)

IC50 [1]: 200 nM
Structure (SMILES): COC(=O)C(CCCSc1nnnn1-c1ccccc1)(Cc1ccc(NS(=O)(=O)O)cc1)C(=O)OC

IC50 [1]: 80 nM
Structure (SMILES): Cc1noc(C(Cc2ccc(NS(=O)(=O)O)cc2)(Cc2ccc(NS(=O)(=O)O)cc2)c2nc(C)no2)n1

IC50 [1]: 60 nM
Structure (SMILES): COC(=O)C(Cc1ccc(NS(=O)(=O)O)cc1)(Cc1ccc(NS(=O)(=O)O)cc1)C(=O)OC

IC50 [1]: 100 nM
Structure (SMILES): COC(=O)C(Cc1ccc(NS(=O)(=O)O)cc1)(Cc1cccc(NS(=O)(=O)O)c1)C(=O)OC

IC50 [1]: 80 nM
Structure (SMILES): COC(=O)C(CCCS(=O)(=O)c1nnnn1-c1ccccc1)(Cc1ccc(NS(=O)(=O)O)cc1)C(=O)OC

IC50 [2]: 16200 nM | IC50 [3]: 4800 nM | IC50 [4]: > 500000 nM | IC50 [5]: 288000 nM | IC50 [6]: > 500000 nM | IC50 [7]: 200000 nM | IC50 [8]: 109000 nM | IC50 [9]: > 500000 nM | IC50 [10]: 126000 nM | IC50 [1]: 230 nM
Structure (SMILES): CCOC(=O)CC(Cc1ccc(NS(=O)(=O)O)cc1)(C(=O)OC)C(=O)OC

IC50 [1]: 210 nM
Structure (SMILES): Cc1noc(C(Cc2ccc(NS(=O)(=O)O)cc2)(Cc2cccc(C#N)c2)c2nc(C)no2)n1

IC50 [2]: 2300 nM | IC50 [3]: 7700 nM | IC50 [4]: > 500000 nM | IC50 [5]: 409000 nM | IC50 [6]: > 500000 nM | IC50 [7]: 93000 nM | IC50 [8]: 15300 nM | IC50 [9]: > 500000 nM | IC50 [10]: 29000 nM | IC50 [1]: 150 nM
Structure (SMILES): COC(=O)C(CCCc1ccccc1)(Cc1ccc(NS(=O)(=O)O)cc1)C(=O)OC

IC50 [1]: 270 nM
Structure (SMILES): COC(=O)C(COCc1ccccc1)(Cc1ccc(NS(=O)(=O)O)cc1)C(=O)OC

IC50 [1]: 70 nM
Structure (SMILES): Cc1noc(C(CCCc2ccccc2)(Cc2ccc(NS(=O)(=O)O)cc2)c2nc(C)no2)n1
